According to the kinase profiling compilation of Christmann-Franck et al. (2016):

What was measured:
Experiment in all cases: KINOMEscan competition binding
Details in all cases: compound 10.0 µM
ACVR2A (human) = ACVR2A (human) (UniProt P27037)
MAPK7 (human) = MAPK7 (human) (UniProt Q13164)
PRKD3 (human) = PRKD3 (human) (UniProt O94806)
NUAK1 (human) = NUAK1 (human) (UniProt O60285)
PRKG2 (human) = PRKG2 (human) (UniProt Q13237)
IRAK3 (human) = IRAK3 (human) (UniProt Q9Y616)
MYLK4 (human) = MYLK4 (human) (UniProt Q86YV6)
MYLK4 (human), sequence (Q86YV6 whole entry, looked up): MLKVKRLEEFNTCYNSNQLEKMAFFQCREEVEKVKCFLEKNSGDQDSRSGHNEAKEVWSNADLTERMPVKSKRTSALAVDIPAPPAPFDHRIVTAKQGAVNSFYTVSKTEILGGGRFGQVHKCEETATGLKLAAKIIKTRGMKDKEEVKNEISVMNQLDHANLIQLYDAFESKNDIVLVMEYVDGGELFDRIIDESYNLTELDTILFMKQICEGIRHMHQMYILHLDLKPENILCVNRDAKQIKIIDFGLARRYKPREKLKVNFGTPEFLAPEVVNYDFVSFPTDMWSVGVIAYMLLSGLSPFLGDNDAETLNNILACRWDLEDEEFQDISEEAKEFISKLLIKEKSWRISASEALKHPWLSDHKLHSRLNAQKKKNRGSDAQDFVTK

MAPKAPK5 (human) = MAPKAPK5 (human) (UniProt Q8IW41)
TNNI3K (human) = TNNI3K (human) (UniProt Q59H18)
LATS2 (human) = LATS2 (human) (UniProt Q9NRM7)
[1] = molecular target: JAK1 JH2 pseudokinase (human) (UniProt P23458)
CSK (human) = CSK (human) (UniProt P41240)
LATS1 (human) = LATS1 (human) (UniProt O95835)
AKT2 (human) = AKT2 (human) (UniProt P31751)
AKT2 (human), sequence (P31751 whole entry, looked up): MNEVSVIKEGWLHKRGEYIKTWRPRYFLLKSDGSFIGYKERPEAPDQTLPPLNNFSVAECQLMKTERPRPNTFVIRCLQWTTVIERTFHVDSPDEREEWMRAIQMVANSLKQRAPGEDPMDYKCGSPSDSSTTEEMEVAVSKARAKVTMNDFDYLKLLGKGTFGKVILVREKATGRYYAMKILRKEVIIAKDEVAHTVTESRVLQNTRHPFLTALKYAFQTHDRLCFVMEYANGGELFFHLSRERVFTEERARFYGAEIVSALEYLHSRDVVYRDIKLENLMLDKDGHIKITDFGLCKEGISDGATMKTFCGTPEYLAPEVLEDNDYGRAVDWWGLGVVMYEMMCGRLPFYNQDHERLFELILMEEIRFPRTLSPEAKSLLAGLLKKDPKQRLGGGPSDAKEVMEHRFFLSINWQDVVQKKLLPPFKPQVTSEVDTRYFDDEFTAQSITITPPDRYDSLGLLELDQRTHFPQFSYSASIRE

MAP3K4 (human) = MAP3K4 (human) (UniProt Q9Y6R4)
LYN (human) = LYN (human) (UniProt P07948)
PRKAA2 (human) = PRKAA2 (human) (UniProt P54646)
RIPK4 (human) = RIPK4 (human) (UniProt P57078)
SRPK1 (human) = SRPK1 (human) (UniProt Q96SB4)
NEK7 (human) = NEK7 (human) (UniProt Q8TDX7)
PRKCD (human) = PRKCD (human) (UniProt Q05655)
TGFBR1 (human) = TGFBR1 (human) (UniProt P36897)
MAP3K11 (human) = MAP3K11 (human) (UniProt Q16584)
MAP3K11 (human), sequence (Q16584 whole entry, looked up): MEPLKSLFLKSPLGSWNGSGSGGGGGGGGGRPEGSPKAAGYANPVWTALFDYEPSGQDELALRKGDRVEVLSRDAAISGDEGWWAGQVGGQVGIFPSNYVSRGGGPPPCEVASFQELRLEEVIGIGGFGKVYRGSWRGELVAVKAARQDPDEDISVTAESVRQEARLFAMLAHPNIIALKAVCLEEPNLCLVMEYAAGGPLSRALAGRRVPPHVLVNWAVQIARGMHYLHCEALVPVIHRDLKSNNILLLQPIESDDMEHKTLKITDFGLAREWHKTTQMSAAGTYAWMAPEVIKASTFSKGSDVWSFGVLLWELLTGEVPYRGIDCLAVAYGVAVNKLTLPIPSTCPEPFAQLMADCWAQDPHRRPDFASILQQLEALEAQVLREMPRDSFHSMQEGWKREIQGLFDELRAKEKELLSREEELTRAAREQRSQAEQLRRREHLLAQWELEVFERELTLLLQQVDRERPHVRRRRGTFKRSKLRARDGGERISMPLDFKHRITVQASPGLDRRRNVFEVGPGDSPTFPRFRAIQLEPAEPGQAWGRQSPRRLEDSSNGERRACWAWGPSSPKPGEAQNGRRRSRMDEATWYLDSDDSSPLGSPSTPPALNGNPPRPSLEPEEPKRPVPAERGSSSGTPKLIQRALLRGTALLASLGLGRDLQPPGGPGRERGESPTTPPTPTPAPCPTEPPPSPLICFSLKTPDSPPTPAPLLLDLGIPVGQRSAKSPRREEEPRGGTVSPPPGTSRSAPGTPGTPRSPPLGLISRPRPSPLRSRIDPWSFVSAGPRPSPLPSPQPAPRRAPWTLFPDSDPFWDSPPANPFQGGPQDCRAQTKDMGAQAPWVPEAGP

SRMS (human) = SRMS (human) (UniProt Q9H3Y6)
PIK3CD (human) = PIK3CD (human) (UniProt O00329)
ADCK3 (human) = ADCK3 (human) (UniProt Q8NI60)
PRKCQ (human) = PRKCQ (human) (UniProt Q04759)
PRKCQ (human), sequence (Q04759 whole entry, looked up): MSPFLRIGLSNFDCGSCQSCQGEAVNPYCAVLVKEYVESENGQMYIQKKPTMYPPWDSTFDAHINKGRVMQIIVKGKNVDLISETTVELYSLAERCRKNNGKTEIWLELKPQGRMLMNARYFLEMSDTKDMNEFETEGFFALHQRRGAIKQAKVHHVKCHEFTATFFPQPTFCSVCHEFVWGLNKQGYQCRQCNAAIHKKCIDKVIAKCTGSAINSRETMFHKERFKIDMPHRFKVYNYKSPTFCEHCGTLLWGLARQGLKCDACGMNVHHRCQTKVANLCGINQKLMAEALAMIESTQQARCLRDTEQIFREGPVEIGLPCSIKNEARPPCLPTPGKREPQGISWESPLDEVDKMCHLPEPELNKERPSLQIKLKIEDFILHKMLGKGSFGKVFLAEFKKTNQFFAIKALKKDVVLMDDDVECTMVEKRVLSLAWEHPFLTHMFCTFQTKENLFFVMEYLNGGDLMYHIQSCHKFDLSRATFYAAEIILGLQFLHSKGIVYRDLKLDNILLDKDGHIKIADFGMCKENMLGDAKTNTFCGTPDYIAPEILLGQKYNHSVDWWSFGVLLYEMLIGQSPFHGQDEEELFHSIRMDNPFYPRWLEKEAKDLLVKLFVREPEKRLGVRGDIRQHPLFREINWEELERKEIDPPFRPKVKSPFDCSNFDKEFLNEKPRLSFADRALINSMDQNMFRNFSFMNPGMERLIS

[2] = test system: BMX (human), P51813 [V600E]
BMX (human), P51813 [V600E], sequence (P51813 whole entry, looked up, stated change not applied): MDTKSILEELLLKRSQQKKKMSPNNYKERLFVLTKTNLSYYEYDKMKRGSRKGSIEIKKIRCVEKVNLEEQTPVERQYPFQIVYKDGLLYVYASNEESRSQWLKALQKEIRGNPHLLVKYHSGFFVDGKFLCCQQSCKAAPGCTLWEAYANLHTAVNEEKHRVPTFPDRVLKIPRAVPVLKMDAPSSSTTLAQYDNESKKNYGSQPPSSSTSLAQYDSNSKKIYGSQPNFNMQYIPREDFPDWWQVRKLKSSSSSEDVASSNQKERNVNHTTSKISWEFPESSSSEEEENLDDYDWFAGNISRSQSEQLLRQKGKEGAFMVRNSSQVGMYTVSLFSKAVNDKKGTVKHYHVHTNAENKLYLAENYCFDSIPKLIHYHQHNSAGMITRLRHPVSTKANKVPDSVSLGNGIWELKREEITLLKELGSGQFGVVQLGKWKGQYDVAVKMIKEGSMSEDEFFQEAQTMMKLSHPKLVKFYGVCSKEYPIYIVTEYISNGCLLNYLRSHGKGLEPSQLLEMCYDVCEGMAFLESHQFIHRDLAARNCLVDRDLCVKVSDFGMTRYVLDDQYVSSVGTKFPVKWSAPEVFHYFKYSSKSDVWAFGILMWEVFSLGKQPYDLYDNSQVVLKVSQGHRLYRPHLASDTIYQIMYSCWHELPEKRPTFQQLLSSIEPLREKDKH

STK38L (human) = STK38L (human) (UniProt Q9Y2H1)
STK25 (human) = STK25 (human) (UniProt O00506)
TNK1 (human) = TNK1 (human) (UniProt Q13470)
PRKCE (human) = PRKCE (human) (UniProt Q02156)
TEC (human) = TEC (human) (UniProt P42680)
DAPK2 (human) = DAPK2 (human) (UniProt Q9UIK4)
DAPK2 (human), sequence (Q9UIK4 whole entry, looked up): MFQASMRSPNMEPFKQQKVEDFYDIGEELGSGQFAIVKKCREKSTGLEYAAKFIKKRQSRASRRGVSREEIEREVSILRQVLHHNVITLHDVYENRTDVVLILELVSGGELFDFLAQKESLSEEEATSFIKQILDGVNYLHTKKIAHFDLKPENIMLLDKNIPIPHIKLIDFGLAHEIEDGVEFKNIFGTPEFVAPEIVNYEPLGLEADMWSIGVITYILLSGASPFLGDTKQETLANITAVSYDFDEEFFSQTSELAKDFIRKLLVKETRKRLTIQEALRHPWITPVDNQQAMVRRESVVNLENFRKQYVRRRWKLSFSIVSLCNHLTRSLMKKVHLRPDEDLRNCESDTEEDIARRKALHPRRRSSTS

PRKX (human) = PRKX (human) (UniProt P51817)

IRAK3 (human), sequence (Q9Y616 whole entry, looked up): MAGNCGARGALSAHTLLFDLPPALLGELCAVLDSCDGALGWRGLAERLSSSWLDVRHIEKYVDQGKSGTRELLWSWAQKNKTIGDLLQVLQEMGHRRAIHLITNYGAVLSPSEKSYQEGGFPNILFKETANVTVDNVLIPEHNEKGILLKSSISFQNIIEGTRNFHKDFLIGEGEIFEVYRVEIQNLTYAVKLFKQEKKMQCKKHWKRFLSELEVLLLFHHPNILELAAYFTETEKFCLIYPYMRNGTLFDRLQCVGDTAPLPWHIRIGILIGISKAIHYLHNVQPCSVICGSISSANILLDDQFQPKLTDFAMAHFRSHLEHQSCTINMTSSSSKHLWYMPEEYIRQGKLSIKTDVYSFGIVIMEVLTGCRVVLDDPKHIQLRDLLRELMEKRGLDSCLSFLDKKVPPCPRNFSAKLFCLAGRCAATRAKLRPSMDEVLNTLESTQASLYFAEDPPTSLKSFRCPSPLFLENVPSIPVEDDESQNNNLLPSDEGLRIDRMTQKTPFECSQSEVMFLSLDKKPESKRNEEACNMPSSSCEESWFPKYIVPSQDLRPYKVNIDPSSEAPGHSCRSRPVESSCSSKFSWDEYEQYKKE
PRKD3 (human), sequence (O94806 whole entry, looked up): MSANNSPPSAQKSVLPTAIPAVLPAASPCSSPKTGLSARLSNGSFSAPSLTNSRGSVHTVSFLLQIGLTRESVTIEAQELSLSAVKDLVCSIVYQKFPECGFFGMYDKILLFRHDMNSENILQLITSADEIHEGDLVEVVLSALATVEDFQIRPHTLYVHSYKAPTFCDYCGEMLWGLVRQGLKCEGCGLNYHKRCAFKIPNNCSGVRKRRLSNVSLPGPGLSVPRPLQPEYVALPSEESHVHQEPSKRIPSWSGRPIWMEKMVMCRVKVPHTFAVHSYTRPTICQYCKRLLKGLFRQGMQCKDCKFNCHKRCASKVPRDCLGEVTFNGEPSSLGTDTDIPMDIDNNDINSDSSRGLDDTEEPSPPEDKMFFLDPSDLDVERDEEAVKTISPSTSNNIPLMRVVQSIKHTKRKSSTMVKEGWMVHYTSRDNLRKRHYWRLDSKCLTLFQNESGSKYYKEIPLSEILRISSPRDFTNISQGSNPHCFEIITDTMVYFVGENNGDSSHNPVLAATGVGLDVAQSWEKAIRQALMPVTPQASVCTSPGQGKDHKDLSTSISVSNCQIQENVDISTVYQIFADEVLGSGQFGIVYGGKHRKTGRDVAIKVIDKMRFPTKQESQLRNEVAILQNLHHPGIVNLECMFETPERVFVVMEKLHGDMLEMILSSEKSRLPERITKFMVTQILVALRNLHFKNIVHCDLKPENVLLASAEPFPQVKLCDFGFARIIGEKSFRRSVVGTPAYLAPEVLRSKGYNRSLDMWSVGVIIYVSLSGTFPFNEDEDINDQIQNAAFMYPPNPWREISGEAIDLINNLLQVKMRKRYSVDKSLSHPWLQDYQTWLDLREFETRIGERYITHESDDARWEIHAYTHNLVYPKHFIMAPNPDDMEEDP

kinase still bound, per cent of control (ACVR2A (human)) | kinase still bound, per cent of control (MAPK7 (human)) | kinase still bound, per cent of control (PRKD3 (human)) | kinase still bound, per cent of control (NUAK1 (human)) | kinase still bound, per cent of control (PRKG2 (human)) | kinase still bound, per cent of control (IRAK3 (human)) | kinase still bound, per cent of control (MYLK4 (human)) | kinase still bound, per cent of control (MAPKAPK5 (human)) | kinase still bound, per cent of control (TNNI3K (human)) | kinase still bound, per cent of control (LATS2 (human)) | kinase still bound, per cent of control [1] | kinase still bound, per cent of control (CSK (human)) | kinase still bound, per cent of control (LATS1 (human)) | kinase still bound, per cent of control (AKT2 (human)) | kinase still bound, per cent of control (MAP3K4 (human)) | kinase still bound, per cent of control (LYN (human)) | kinase still bound, per cent of control (PRKAA2 (human)) | kinase still bound, per cent of control (SRPK1 (human)) | kinase still bound, per cent of control (NEK7 (human)) | kinase still bound, per cent of control (PRKCD (human)) | other results | SMILES
100% | 100% | 100% | 100% | 100% | 100% | 100% | 100% | 100% | 100% | 100% | 100% | 100% | 100% | 12% | 100% | 100% | 100% | 14% | 100% | kinase still bound, per cent of control (RIPK4 (human)): 100%; kinase still bound, per cent of control (TGFBR1 (human)): 100%; kinase still bound, per cent of control (MAP3K11 (human)): 100%; kinase still bound, per cent of control (SRMS (human)): 100%; kinase still bound, per cent of control (PIK3CD (human)): 100%; kinase still bound, per cent of control (ADCK3 (human)): 100%; kinase still bound, per cent of control (PRKCQ (human)): 100%; kinase still bound, per cent of control [2]: 100%; kinase still bound, per cent of control (STK38L (human)): 7%; kinase still bound, per cent of control (STK25 (human)): 100%; kinase still bound, per cent of control (TNK1 (human)): 100%; kinase still bound, per cent of control (PRKCE (human)): 100%; kinase still bound, per cent of control (TEC (human)): 25%; kinase still bound, per cent of control (DAPK2 (human)): 28%; kinase still bound, per cent of control (PRKX (human)): 100% | COc1cc(C)c(Sc2cnc(NC(=O)c3ccc(CNC(C)C(C)C)cc3)s2)cc1C(=O)N1CCN(C(C)=O)CC1 (stereo not drawn)
100% | 15% | 100% | 100% | 100% | 100% | 100% | 100% | 0.6% | 100% | 100% | 1.2% | 100% | 100% | 100% | 0.95% | 3.3% | 100% | 100% | 100% | kinase still bound, per cent of control (TGFBR1 (human)): 100%; kinase still bound, per cent of control (MAP3K11 (human)): 100%; kinase still bound, per cent of control (SRMS (human)): 0%; kinase still bound, per cent of control (ADCK3 (human)): 100%; kinase still bound, per cent of control (PRKCQ (human)): 100%; kinase still bound, per cent of control [2]: 9.7%; kinase still bound, per cent of control (STK38L (human)): 100%; kinase still bound, per cent of control (STK25 (human)): 100%; kinase still bound, per cent of control (TNK1 (human)): 1.6%; kinase still bound, per cent of control (PRKCE (human)): 100%; kinase still bound, per cent of control (TEC (human)): 0.2%; kinase still bound, per cent of control (DAPK2 (human)): 100%; kinase still bound, per cent of control (PRKX (human)): 100% | COc1ccc(N(C(=O)Oc2cc(C(=O)Nc3cccc(C(F)(F)F)c3)ccc2C)c2ccnc(Nc3ccc(N4CCN(C)CC4)cc3)n2)c(OC)c1
